The values below are quoted from earlier work in patent publication US4749688A, “Use of neutral metalloendopeptidase inhibitors in the treatment of hypertension” (Schering Corporation, priority 1986, dated 1988).

The target in data set [1] is peripheral ACE (Homo sapiens, UniProt P12821).
For data set [2] the following is noted: in vivo.

peripheral ACE, sequence (P12821 30-1306): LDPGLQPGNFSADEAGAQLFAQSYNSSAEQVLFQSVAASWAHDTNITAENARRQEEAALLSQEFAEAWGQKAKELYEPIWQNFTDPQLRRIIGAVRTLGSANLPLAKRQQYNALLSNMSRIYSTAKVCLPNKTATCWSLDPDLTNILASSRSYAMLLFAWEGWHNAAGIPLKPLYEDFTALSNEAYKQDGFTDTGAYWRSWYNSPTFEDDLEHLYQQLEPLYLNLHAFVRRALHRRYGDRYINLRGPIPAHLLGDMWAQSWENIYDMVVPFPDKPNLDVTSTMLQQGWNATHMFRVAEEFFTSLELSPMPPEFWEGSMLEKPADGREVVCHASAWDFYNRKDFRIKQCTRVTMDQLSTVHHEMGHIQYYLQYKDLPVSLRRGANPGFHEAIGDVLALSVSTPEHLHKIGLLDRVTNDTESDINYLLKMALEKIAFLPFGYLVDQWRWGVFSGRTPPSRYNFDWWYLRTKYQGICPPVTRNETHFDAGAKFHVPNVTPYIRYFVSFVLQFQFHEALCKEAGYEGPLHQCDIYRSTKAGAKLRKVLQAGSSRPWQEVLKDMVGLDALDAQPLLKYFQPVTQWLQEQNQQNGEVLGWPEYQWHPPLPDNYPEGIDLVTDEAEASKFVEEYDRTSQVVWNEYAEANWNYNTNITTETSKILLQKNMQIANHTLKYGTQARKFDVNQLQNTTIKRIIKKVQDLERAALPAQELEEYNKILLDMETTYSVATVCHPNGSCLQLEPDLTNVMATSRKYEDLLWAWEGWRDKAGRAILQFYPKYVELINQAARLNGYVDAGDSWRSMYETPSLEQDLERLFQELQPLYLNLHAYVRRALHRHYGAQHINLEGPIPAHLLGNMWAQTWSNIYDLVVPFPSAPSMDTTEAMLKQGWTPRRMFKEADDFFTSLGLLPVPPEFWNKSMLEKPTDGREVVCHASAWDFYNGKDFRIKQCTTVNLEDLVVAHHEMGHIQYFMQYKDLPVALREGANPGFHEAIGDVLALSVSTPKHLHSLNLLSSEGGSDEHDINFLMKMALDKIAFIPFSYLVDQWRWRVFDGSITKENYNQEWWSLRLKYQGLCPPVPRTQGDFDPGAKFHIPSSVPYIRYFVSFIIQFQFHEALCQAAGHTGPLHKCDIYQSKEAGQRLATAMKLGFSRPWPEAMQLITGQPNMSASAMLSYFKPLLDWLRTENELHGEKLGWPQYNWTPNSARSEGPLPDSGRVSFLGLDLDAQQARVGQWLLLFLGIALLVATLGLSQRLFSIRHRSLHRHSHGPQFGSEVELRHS

As to `O=C(O)CNC(=O)C(CS)Cc1ccccc1` (racemic) [thiorphan, N-[(R,S)-3-mercapto-2-benzylpropanoyl]-glycine], the “inhibition of peripheral ACE” value in data set [1] was “inhibit peripheral ACE”. Also, in data set [2], the blood pressure entry is “not affected” and the heart rate result is given as “not affected”.
